According to patent US20250034182A1, “PHOSPHOLIPID COMPOUNDS AND METHODS OF MAKING AND USING THE SAME” (priority 2021, published 2025):

Tests used:
[1] = tested on: Respiratory syncytial virus recombinant with luciferase (RSV-Luc5) in NHBE cells; experiment: NHBE RSV-Luc5 384-well assay (EC50 RSVFLUC NHBE-384, Example U); format: cell-based; details: human respiratory syncytial virus, 72 h, read-out: RSV FLuc NHBE 384 EC50 (v2) (nM) (per Ex. U)
Outline: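 Passage-2 NHBE cells (5,000/well) on pre-spotted compounds, 10-point 1:3 series, infected with RSV-Luc5 at MOI 1 and incubated 3 days at 37° C. Replication read by One-Glo luminescence, normalized to remdesivir (0%) and DMSO (100%); EC50 = concentration reducing replication by 50%, by non-linear regression.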

[2] = tested on: Human Rhinovirus 1B (HRV1B) in H1-HeLa cells; experiment: H1-HeLa HRV-CTG EC50, HRV1B (Example Z); format: cell-based; details: Rhinovirus A, 96 h, MOI 0.5, 4 days, Celltiter-Glo, read-out: HRV 1B HELA EC50 (nM) (per Ex. Z)
Description: H1-Hela cell line (ATCC, Manassas, VA, Cat #CRL-1958) was maintained in Dulbecco's […] (DMEM) (Corning, New York, NY, Cat #15-018CM) supplemented with 10% fetal bovine serum (FBS) (Hyclone, Logan, UT, Cat #SH30071-03), and 1× Penicillin-Streptomycin-L-Glutamine (Coming, New York, NY, Cat #30-009-C1). Cells were passaged 2 times per week to maintain sub-confluent densities and were used for experiments at passage 5-30. The Human Rhinovirus 1B (HRV1B) (ATCC, Manassas, VA, Cat #VR-1645), Human Rhinovirus 14 (HRV14) (ATCC, Manassas, VA, Cat #VR-284), and Human Rhinovirus 16 (HRV16) (ATCC, Manassas, VA, Cat #BR-283) was obtained through ATCC. Viral infection was monitored by determining viability of H1-HeLa cells as described below.
Test molecules are prepared in 100% DMSO in 384-well polypropylene plates (Greiner, Monroe, NC, Cat #784201) with 8 compounds per plate in grouped replicates of 4 at 10 serially diluted concentrations (1:3). The serially diluted compounds were transferred to low dead volume Echo plates (Labcyte, Sunnyvale, CA, Cat #LP-0200).
The test compounds were spotted to 384-well assay plates (Greiner, Monroe, NC, Cat #781091) at 200 nL per well using an Echo acoustic dispenser (Labcyte, Sunnyvale, CA). H1-HeLa cells were harvested and suspended in DMEM (supplemented with 2% FBS and 1× Penicillin-Streptomycin-L-Glutamine) and seeded to the pre-spotted assay plates at 5,000 cells per well in 30 μL. HRV1B, HRV14, and HRV16 was diluted in DMEM (supplemented with 2% FBS and 1× Penicillin-Streptomycin-L-Glutamine) at 97.1 million Infectious Units (IU) per mL, 151 million IU per mL and 221 million IU per mL respectively. 10 μL of virus per well was added to the assay plates containing cells and compounds, for an MOI of 0.5, 1.0, and 0.25 respectively. The assay plates were incubated for 4 days at 37° C. and 5% CO2. At the end of incubation, Celltiter-Glo (Promega, Madison, WI, Cat #G7573) was prepared. The assay plates and Celltiter-Glo reagent were equilibrated to room temperature for at least 15 minutes. 40 μL per well of Celltiter-Glo reagent was added and the plates were incubated at room temperature for 15 minutes before reading the luminescence signal on an EnVision multimode plate reader (Perkin Elmer, Waltham, MA). Rupintrivir was used as positive control and DMSO was used as negative control. Values were normalized to the positive and negative controls (as 0% and 100% replication, respectively) and data was fitted using non-linear regression analysis by Gilead's dose response tool. The EC50 value for each compound was defined as the concentration reducing viral replication by 50%.

Structure (SMILES) | EC50 [1] | EC50 [2]
CCCCCCCCCCCCCCCCCOC[C@H](COP(=O)(O)OC[C@@]1(C#N)O[C@@H](c2ccc3c(N)ncnn23)[C@H](O)[C@@H]1O)OCc1cc(F)cc(C#N)c1 [Compound 53, ((2R,3S,4R,5S)-5-(4-aminopyrrolo[2,1-f][1,2,4]triazin-7-yl)-2-cyano-3,4-dihydroxytetrahydrofuran-2-yl)methyl ((R)-2-((3-cyano-5-fluorobenzyl)oxy)-3-(heptadecyloxy)propyl) hydrogen phosphate] | 22 nM | 34 nM
CCCCCCCCCCCCCCCCCCCC[C@H](COP(=O)(O)OC[C@@]1(C#N)O[C@@H](c2ccc3c(N)ncnn23)[C@H](O)[C@@H]1O)Oc1cccc(C#N)c1 [Compound 51, ((2R,3S,4R,5S)-5-(4-aminopyrrolo[2,1-f][1,2,4]triazin-7-yl)-2-cyano-3,4-dihydroxytetrahydrofuran-2-yl)methyl ((R)-2-(3-cyanophenoxy)docosyl) hydrogen phosphate] | 56 nM | 33 nM
CCCCCCCCCCCCCCCCCCC[C@H](COP(=O)(O)OC[C@@]1(C#N)O[C@@H](c2ccc3c(N)ncnn23)[C@H](O)[C@@H]1O)OCc1ccc(-n2cncn2)c(C#N)c1 [Compound 30, ((2R,3S,4R)-5-(4-aminopyrrolo[2,1-f][1,2,4]triazin-7-yl)-2-cyano-3,4-dihydroxytetrahydrofuran-2-yl)methyl ((R)-2-((3-cyano-4-(1H-1,2,4-triazol-1-yl)benzyl)oxy)henicosyl) hydrogen phosphate] | 14 nM | 7 nM
CCCCCCCCCCCCCCCCCCOC[C@H](COP(=O)(O)OC[C@@]1(C#N)O[C@@H](c2ccc3c(N)ncnn23)[C@H](O)[C@@H]1O)OCc1ccc(C#N)cc1OC [Compound 73, ((2R,3S,4R)-5-(4-aminopyrrolo[2,1-f][1,2,4]triazin-7-yl)-2-cyano-3,4-dihydroxytetrahydrofuran-2-yl)methyl ((R)-2-((4-cyano-2-methoxybenzyl)oxy)-3-(octadecyloxy)propyl) hydrogen phosphate] | 10 nM | 12 nM
CCCCCCCCCCCCCCCCCCC[C@H](COP(=O)(O)OC[C@@]1(C#N)O[C@@H](c2ccc3c(N)ncnn23)[C@H](O)[C@@H]1O)OCc1ccc(C#N)c(OC(C)C)c1 [Compound 28, ((2R,3S,4R,5S)-5-(4-aminopyrrolo[2,1-f][1,2,4]triazin-7-yl)-2-cyano-3,4-dihydroxytetrahydrofuran-2-yl)methyl ((R)-2-((4-cyano-3-isopropoxybenzyl)oxy)henicosyl) hydrogen phosphate] | 46 nM | 36 nM
CCCCCCCCCCCCCCCCC[C@H](COP(=O)(O)OC[C@@]1(C#N)O[C@@H](c2ccc3c(N)ncnn23)[C@H](O)[C@@H]1O)OCc1cc(F)cc(C#N)c1 [Compound 36, ((2R,3S,4R,5S)-5-(4-aminopyrrolo[2,1-f][1,2,4]triazin-7-yl)-2-cyano-3,4-dihydroxytetrahydrofuran-2-yl)methyl ((R)-2-((3-cyano-5-fluorobenzyl)oxy)nonadecyl) hydrogen phosphate] | 51 nM | 102 nM
CCCCCCCCCCCCCCCCCCOC[C@@H](COP(=O)(O)OC[C@@]1(C#N)O[C@@H](c2ccc3c(N)ncnn23)[C@H](O)[C@@H]1O)Oc1ccc(C#N)nc1 [Compound 72, ((2R,3S,4R,5S)-5-(4-aminopyrrolo[2,1-f][1,2,4]triazin-7-yl)-2-cyano-3,4-dihydroxytetrahydrofuran-2-yl)methyl ((S)-2-((6-cyanopyridin-3-yl)oxy)-3-(octadecyloxy)propyl) hydrogen phosphate] | 4 nM | 3 nM
CCCCCCCCCCCCCCCC[C@H](COP(=O)(O)OC[C@@]1(C#N)O[C@@H](c2ccc3c(N)ncnn23)[C@H](O)[C@@H]1O)OCc1cc(F)cc(C#N)c1 [Compound 78, ((2R,3S,4R,5S)-5-(4-aminopyrrolo[2,1-f][1,2,4]triazin-7-yl)-2-cyano-3,4-dihydroxytetrahydrofuran-2-yl)methyl ((R)-2-((3-cyano-5-fluorobenzyl)oxy)octadecyl) hydrogen phosphate] | 31 nM | 24 nM
CCCCCCCCCCCCCCCCCCC[C@H](COP(=O)(O)OC[C@@]1(C#N)O[C@@H](c2ccc3c(N)ncnn23)[C@H](O)[C@@H]1O)Oc1cc(OC)c(C#N)c(OC)c1 [Compound 39, ((2R,3S,4R,5S)-5-(4-aminopyrrolo[2,1-f][1,2,4]triazin-7-yl)-2-cyano-3,4-dihydroxytetrahydrofuran-2-yl)methyl ((R)-2-(4-cyano-3,5-dimethoxyphenoxy)henicosyl) hydrogen phosphate] | 51 nM | 18 nM
CCCCCCCCCCCCCCC[C@H](COP(=O)(O)OC[C@@]1(C#N)O[C@@H](c2ccc3c(N)ncnn23)[C@H](O)[C@@H]1O)OCc1cc(F)cc(C#N)c1 [Compound 80, ((2R,3S,4R,5S)-5-(4-aminopyrrolo[2,1-f][1,2,4]triazin-7-yl)-2-cyano-3,4-dihydroxytetrahydrofuran-2-yl)methyl ((R)-2-((3-cyano-5-fluorobenzyl)oxy)heptadecyl) hydrogen phosphate] | 36 nM | 49 nM
CCCCCCCCCCCCCCCCCCOC[C@H](COP(=O)(O)OC[C@@]1(C#N)O[C@@H](c2ccc3c(N)ncnn23)[C@H](O)[C@@H]1O)Oc1cccc(C#N)n1 [Compound 21, ((2R,3S,4R,5S)-5-(4-aminopyrrolo[2,1-f][1,2,4]triazin-7-yl)-2-cyano-3,4-dihydroxytetrahydrofuran-2-yl)methyl ((R)-2-((6-cyanopyridin-2-yl)oxy)-3-(octadecyloxy)propyl) hydrogen phosphate] | 29 nM | 35 nM
CCCCCCCCCCCCCCCC[C@@H](COP(=O)(O)OC[C@@]1(C#N)O[C@@H](c2ccc3c(N)ncnn23)[C@H](O)[C@@H]1O)OCc1cc(F)cc(C#N)c1 [Compound 79, ((2R,3S,4R,5S)-5-(4-aminopyrrolo[2,1-f][1,2,4]triazin-7-yl)-2-cyano-3,4-dihydroxytetrahydrofuran-2-yl)methyl ((S)-2-((3-cyano-5-fluorobenzyl)oxy)octadecyl) hydrogen phosphate] | 19 nM | 25 nM
CCCCCCCCCCCCCCCCCCC[C@H](COP(=O)(O)OC[C@@]1(C#N)O[C@@H](c2ccc3c(N)ncnn23)[C@H](O)[C@@H]1O)Oc1ccc(C#N)c(OC(C)C)c1 [Compound 38, ((2R,3S,4R,5S)-5-(4-aminopyrrolo[2,1-f][1,2,4]triazin-7-yl)-2-cyano-3,4-dihydroxytetrahydrofuran-2-yl)methyl ((R)-2-(4-cyano-3-isopropoxyphenoxy)henicosyl) hydrogen phosphate] | 25 nM | 12 nM
CCCCCCCCCCCCCCCCCCOC[C@H](COP(=O)(O)OC[C@@]1(C#N)O[C@@H](c2ccc3c(N)ncnn23)[C@H](O)[C@@H]1O)OCc1ccc(C#N)c(-n2cncn2)c1 [Compound 16, ((2R,3S,4R,5S)-5-(4-aminopyrrolo[2,1-f][1,2,4]triazin-7-yl)-2-cyano-3,4-dihydroxytetrahydrofuran-2-yl)methyl ((R)-2-((4-cyano-3-(1H-1,2,4-triazol-1-yl)benzyl)oxy)-3-(octadecyloxy)propyl) hydrogen phosphate] | < 3 nM | 5 nM
CCCCCCCCCCCCCCCCCCOC[C@H](COP(=O)(O)OC[C@@]1(C#N)O[C@@H](c2ccc3c(N)ncnn23)[C@H](O)[C@@H]1O)OCc1cc(F)cc(C#N)c1 [Compound 1, ((2R,3S,4R,5S)-5-(4-aminopyrrolo[2,1-f][1,2,4]triazin-7-yl)-2-cyano-3,4-dihydroxytetrahydrofuran-2-yl)methyl ((R)-2-((3-cyano-5-fluorobenzyl)oxy)-3-(octadecyloxy)propyl) hydrogen phosphate] | 54 nM | 4 nM
